Laboratory results from patent US8119621B2, “Tetrahydro-cyclopentyl pyrazole cannabinoid modulators” (Janssen Pharmaceutica N.V., priority 2005, dated 2012).
Values joined by “and” are separate entries in the source; they are usually repeats but may differ in a detail not shown here. Equal entries are not always repeated. Where two headings read alike, the source gives them in different places.

Experiments:
human CB2 receptor = biological target: T1, human CB2 receptor (Homo sapiens, UniProt P34972); experiment: Binding assay for CB2 agonists or inverse agonists ([3H]-CP-55,940 displacement, SK-N-MC membranes)
T1 construct: expressed in transfected cells; host or cells: SK-N-MC cells, stably transfected with pcDNA3 CB-2 (human); semi-purified membrane pellet
Protocol: (§1) The human CB1 and CB2 receptors were stably expressed in SK-N-MC cells transfected with pcDNA3 CB-1 (human) or pcDNA3 CB-2 (human). The cells were grown in T-180 cell culture flasks under standard cell culture conditions at 37° C. in a 5% CO2 atmosphere. The cells were harvested by trysinization and homogenized in a homogenization buffer (10 mM Tris, 0.2 mM MgCl2, 5 mM KCl, with protease inhibitors aprotinin, leupeptin, pepstatin A and bacitracin) and centrifuged (2000 g). The supernatant was then centrifuged in 2M sucrose (31,300 g) to produce a semi-purified membrane pellet. The pellet was resuspended in homogenization and stored at −80° C.
(§2) On the day of the assay, the pellet was thawed on ice and diluted in assay buffer (50 mM Tris-HCl, 5 mM MgCl2, 2.5 mM EDTA, 0.5 mg/mL fatty acid free bovine serum albumin, pH 7.5). […] The plate was covered and incubated for 90 minutes at 30° C. The contents were then aspirated onto a Packard Unifilter GF/C filter bottom plate prewet with 0.5% polyethyleneimine. The wells of the polypropylene plate were rinsed and aspirated seven times with a 0.9% saline-0.5% Tween 20 solution. The Unifilter plate was dried, a scintillation cocktail was added to each well and the counts representing binding were quantitated in a TopCount scintillation counter.
(§3) For compounds tested, an IC50 binding value was obtained from percent inhibition studies in which various test concentrations were used. The binding value was calculated by linear regression.

human CB1 receptor [1] = biological target: T2, human CB1 receptor (Homo sapiens, UniProt P21554); experiment: Binding assay for CB1 agonists or inverse agonists ([3H]-CP-55,940 displacement, SK-N-MC membranes)
T2 construct: expressed in transfected cells; host or cells: SK-N-MC cells, stably transfected with pcDNA3 CB-1 (human); semi-purified membrane pellet
Protocol: as §1, §2, §3

human CB1 receptor [2] = biological target: T2, human CB1 receptor; experiment: Functional cell-based assay, CB1 receptor mediated change in CRE β-gal expression (adenylate cyclase activity); conditions: for CB1 Receptor Functional Activity (change in functional activity): one compound concentration, vehicle treated cell = 100%
Source text: The CB1 and CB2 receptors are G-protein coupled receptors (GPCR), which influence cell function via the Gi-protein. These receptors modulate the activity of intracellular adenylate cyclase, which in turn produces the intracellular signal messenger cyclic-AMP (cAMP).
At baseline, or during non-ligand bound conditions, these receptors are constitutively active and tonically suppress adenylate cyclase activity. The binding of an agonist causes further receptor activation and produces additional suppression of adenylate cyclase activity. The binding of an inverse agonist inhibits the constitutive activity of the receptors and results in an increase in adenylate cyclase activity.
Test compounds were evaluated in SK-N-MC cells which, using standard transfection procedures, were stably transfected with human cDNA for pcDNA3-CRE β-gal and pcDNA3 CB1 receptor (human) or pcDNA3 CB2 receptor (human). By expressing CRE β-gal, the cells produced β-galactosidase in response to CRE promoter activation by cAMP. Cells expressing CRE β-gal and either the human CB1 or CB2 receptor will produce less β-galactosidase when treated with a CB1/CB2 agonist and will produce more β-galactosidase when treated with a CB1/CB2 inverse agonist.
The cells were grown in 96-well plates under standard cell culture conditions at 37° C. in a 5% CO2 atmosphere. After 3 days, the media was removed and a test compound in media (wherein the media was supplemented with 2 mM L-glutamine, […] sodium pyruvate, 0.1% low fatty acid FBS (fetal bovine serum) and antibiotics) was added to the cell. The plates were incubated for 30 minutes at 37° C. and the plate cells were then treated with forskolin over a 4-6 hour period, then washed and lysed. The β-galactosidase activity was quantitated using commercially available kit reagents (Promega Corp. Madison, Wis.) and a Vmax Plate Reader (Molecular Devices, Inc).
The change in β-galactosidase activity was determined by setting a vehicle treated cell's activity value at 100% and expressing the β-galactosidase activity measured in a corresponding compound treated cell as a percent of the vehicle treated cell activity.
The EC50 value for functional activity for compounds tested was calculated by linear regression and was obtained from studies in which varying compound concentrations were used.
Where an EC50 value was not obtained for a test compound, the value shown (in %) represents change in functional activity and was obtained from a study in which one compound concentration was used.

[3] = read-out: CB2 receptor binding percent inhibition
[4] = read-out: CB1 receptor binding percent inhibition
[5] = test concentration 0.25 μM (footnote 3), read-out: CB2 receptor binding percent inhibition
[6] = test concentration 0.25 μM (footnote 3), read-out: CB1 receptor binding percent inhibition
[7] = CB1 Receptor Functional Inverse Agonist EC50, SK-N-MC cells, CRE β-gal, forskolin

T1 sequence (P34972 whole entry): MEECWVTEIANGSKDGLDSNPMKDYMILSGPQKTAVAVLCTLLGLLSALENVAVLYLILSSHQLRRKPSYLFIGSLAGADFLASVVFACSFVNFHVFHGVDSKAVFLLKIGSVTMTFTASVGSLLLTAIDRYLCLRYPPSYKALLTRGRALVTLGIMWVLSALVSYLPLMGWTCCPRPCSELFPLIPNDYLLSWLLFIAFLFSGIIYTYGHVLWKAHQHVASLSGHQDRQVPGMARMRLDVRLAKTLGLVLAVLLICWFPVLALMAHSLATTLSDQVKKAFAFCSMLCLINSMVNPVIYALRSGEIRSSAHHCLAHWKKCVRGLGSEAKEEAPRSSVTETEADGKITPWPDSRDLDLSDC
T2 sequence (P21554 whole entry): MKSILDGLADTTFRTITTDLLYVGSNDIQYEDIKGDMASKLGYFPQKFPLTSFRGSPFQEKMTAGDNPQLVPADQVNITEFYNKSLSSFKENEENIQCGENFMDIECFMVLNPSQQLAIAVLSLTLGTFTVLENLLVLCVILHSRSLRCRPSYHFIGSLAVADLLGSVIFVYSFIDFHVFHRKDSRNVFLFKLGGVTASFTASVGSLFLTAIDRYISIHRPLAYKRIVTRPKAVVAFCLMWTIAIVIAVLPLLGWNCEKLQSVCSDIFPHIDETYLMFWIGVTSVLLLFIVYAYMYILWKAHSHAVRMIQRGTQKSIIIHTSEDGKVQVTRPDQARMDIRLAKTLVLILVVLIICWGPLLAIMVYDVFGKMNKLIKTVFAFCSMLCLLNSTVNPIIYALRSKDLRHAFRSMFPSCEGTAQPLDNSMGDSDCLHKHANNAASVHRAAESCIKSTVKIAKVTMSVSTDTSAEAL

| SMILES | inhibition at 0.25 µM (human CB2 receptor; [5]) [%] | inhibition at 0.25 µM (human CB1 receptor [1]; [6]) [%] | CB1 Receptor Functional Activity (change in functional activity) (human CB1 receptor [2]) [%] | further results |
| --- | --- | --- | --- | --- |
| C[C@H](NS(=O)(=O)/C=C/c1nn(-c2ccc(F)cc2F)c2c1CCC2Cc1cccc(F)c1)c1ccccc1 (stereo partly drawn) [Cpd 1, (2E)-2-[1-(2,4-difluoro-phenyl)-6-(3-fluoro-benzyl)-1,4,5,6-tetrahydro-cyclopentapyrazol-3-yl]-ethenesulfonic acid [(1S)-1-phenyl-ethyl]-amide] | – | – | – | inhibition at 0.25 µM (human CB2 receptor; [3]): 14%; inhibition at 0.25 µM (human CB1 receptor [1]; [4]): 5%; EC50 (human CB1 receptor [2]; CB1 receptor functional agonist EC50, SK-N-MC cells, CRE β-gal, functional agonist): 40 nM |
| O=S(=O)(/C=C/c1nn(-c2ccc(F)cc2F)c2c1CCC2Cc1cccc(F)c1)NN1CCOCC1 (stereo not shown) [Cpd 2, (2E)-2-[1-(2,4-difluoro-phenyl)-6-(3-fluoro-benzyl)-1,4,5,6-tetrahydro-cyclopentapyrazol-3-yl]-ethenesulfonic acid morpholin-4-ylamide] | 21 | 0 | 58 | – |
| O=S(=O)(/C=C/c1nn(-c2ccc(F)cc2F)c2c1CCC2Cc1cccc(F)c1)NN1CCCCC1 (stereo not shown) [Cpd 3, (2E)-2-[1-(2,4-difluoro-phenyl)-6-(3-fluoro-benzyl)-1,4,5,6-tetrahydro-cyclopentapyrazol-3-yl]-ethenesulfonic acid piperidin-1-ylamide] | 0 | 22 | – | EC50 (human CB1 receptor [2]): 5600 nM |
| C[C@@H](NS(=O)(=O)/C=C/c1nn(-c2ccc(F)cc2F)c2c1CCC2Cc1cccc(F)c1)c1ccccc1 (stereo partly drawn) [Cpd 4, (2E)-2-[1-(2,4-difluoro-phenyl)-6-(3-fluoro-benzyl)-1,4,5,6-tetrahydro-cyclopentapyrazol-3-yl]-ethenesulfonic acid [(1R)-1-phenyl-ethyl]-amide] | – | – | 34 | inhibition at 0.25 µM (human CB2 receptor; [3]): 17%; inhibition at 0.25 µM (human CB1 receptor [1]; [4]): 24% |
| C[C@@H](NS(=O)(=O)/C=C/c1nn(-c2ccc(F)cc2F)c2c1CCC2Cc1cccc(F)c1)C1CCCCC1 (stereo partly drawn) [Cpd 5, (2E)-2-[1-(2,4-difluoro-phenyl)-6-(3-fluoro-benzyl)-1,4,5,6-tetrahydro-cyclopentapyrazol-3-yl]-ethenesulfonic acid [(1R)-1-cyclohexyl-ethyl]-amide] | 4 | 44 | – | EC50 (human CB1 receptor [2]; [7]): 200 nM |
| O=C(NN1CCCCC1)c1nn(-c2ccc(F)cc2F)c2c1CCC2Cc1cccc(F)c1 (stereo not shown) [Cpd 6, 1-(2,4-difluoro-phenyl)-6-(3-fluoro-benzyl)-1,4,5,6-tetrahydro-cyclopentapyrazole-3-carboxylic acid piperidin-1-ylamide] | 12 | 4 | – | EC50 (human CB1 receptor [2]): 200 nM |
| O=C(c1nn(-c2ccc(F)cc2F)c2c1CCC2Cc1cccc(F)c1)N1CCCCC1 (stereo not shown) [Cpd 8, [1-(2,4-difluoro-phenyl)-6-(3-fluoro-benzyl)-1,4,5,6-tetrahydro-cyclopentapyrazol-3-yl]-piperidin-1-yl-methanone] | 0 | 6 | 21 | – |
| CCOC(=O)[C@H]1C2CCC(C2)[C@H]1NC(=O)c1nn(-c2ccc(F)cc2F)c2c1CCC2Cc1cccc(F)c1 (stereo partly drawn) [Cpd 13, (2S,3R)-3-{[1-(2,4-difluoro-phenyl)-6-(3-fluoro-benzyl)-1,4,5,6-tetrahydro-cyclopentapyrazole-3-carbonyl]-amino}-bicyclo[2.2.1]heptane-2-carboxylic acid ethyl ester] | 44 | 58 | 24 | – |
| COC(=O)[C@@H](Cc1ccc(F)cc1)NC(=O)c1nn(-c2ccc(F)cc2F)c2c1CCC2Cc1cccc(F)c1 (stereo partly drawn) [Cpd 14, (2R)-2-{[1-(2,4-difluoro-phenyl)-6-(3-fluoro-benzyl)-1,4,5,6-tetrahydro-cyclopentapyrazole-3-carbonyl]-amino}-3-(4-fluoro-phenyl)-propionic acid methyl ester] | 30 | 50 | 48 | – |
| COC(=O)[C@@H](Cc1ccc(O)cc1)NC(=O)c1nn(-c2ccc(F)cc2F)c2c1CCC2Cc1cccc(F)c1 (stereo partly drawn) [Cpd 15, (2R)-2-{[1-(2,4-difluoro-phenyl)-6-(3-fluoro-benzyl)-1,4,5,6-tetrahydro-cyclopentapyrazole-3-carbonyl]-amino}-3-(4-hydroxy-phenyl)-propionic acid methyl ester] | 50 | 54 | −15 | – |
| O=C(NCc1ccccc1)c1nn(-c2ccc(F)cc2F)c2c1CCC2Cc1cccc(F)c1 (stereo not shown) [Cpd 16, 1-(2,4-difluoro-phenyl)-6-(3-fluoro-benzyl)-1,4,5,6-tetrahydro-cyclopentapyrazole-3-carboxylic acid benzylamide] | 0 | – | – | inhibition at 0.25 µM (human CB1 receptor [1]; [4]): 26%; EC50 (human CB1 receptor [2]; [7]): 400 nM |
| O=C(c1nn(-c2ccc(F)cc2F)c2c1CCC2Cc1cccc(F)c1)N1CCN(c2ccccc2)CC1 (stereo not shown) [Cpd 17, [1-(2,4-difluoro-phenyl)-6-(3-fluoro-benzyl)-1,4,5,6-tetrahydro-cyclopentapyrazol-3-yl]-(4-phenyl-piperazin-1-yl)-methanone] | – | – | – | inhibition at 1 µM (human CB1 receptor [1]; [4]): 35%; EC50 (human CB1 receptor [2]; [7]): 400 nM and 100 nM |
| C[C@H](NC(=O)c1nn(-c2ccc(F)cc2F)c2c1CCC2Cc1cccc(F)c1)c1ccccc1 (stereo partly drawn) [Cpd 18, 1-(2,4-difluoro-phenyl)-6-(3-fluoro-benzyl)-1,4,5,6-tetrahydro-cyclopentapyrazole-3-carboxylic acid [(1S)-1-phenyl-ethyl]-amide] | 19 | 66 | – | EC50 (human CB1 receptor [2]): 10000 nM |
| C[C@@H](NC(=O)c1nn(-c2ccc(F)cc2F)c2c1CCC2Cc1cccc(F)c1)c1ccccc1 (stereo partly drawn) [Cpd 19, 1-(2,4-difluoro-phenyl)-6-(3-fluoro-benzyl)-1,4,5,6-tetrahydro-cyclopentapyrazole-3-carboxylic acid [(1R)-1-phenyl-ethyl]-amide] | 26 | 52 | – | EC50 (human CB1 receptor [2]): 200 nM |
| C[C@H](NC(=O)c1nn(-c2ccc(F)cc2F)c2c1CCC2Cc1cccc(F)c1)C1CCCCC1 (stereo partly drawn) [Cpd 20, 1-(2,4-difluoro-phenyl)-6-(3-fluoro-benzyl)-1,4,5,6-tetrahydro-cyclopentapyrazole-3-carboxylic acid [(1S)-1-cyclohexyl-ethyl]-amide] | – | – | 37 | inhibition at 0.25 µM (human CB2 receptor; [3]): 44%; inhibition at 0.25 µM (human CB1 receptor [1]; [4]): 70% |
| O=C(N[C@H](CCl)Cc1ccccc1)c1nn(-c2ccc(F)cc2F)c2c1CCC2Cc1cccc(F)c1 (stereo partly drawn) [Cpd 27, 1-(2,4-difluoro-phenyl)-6-(3-fluoro-benzyl)-1,4,5,6-tetrahydro-cyclopentapyrazole-3-carboxylic acid [(1S)-1-benzyl-2-chloro-ethyl]-amide] | – | – | – | inhibition at 0.2 µM (human CB2 receptor; test concentration 0.2 μM (footnote 2), read-out: CB2 receptor binding percent inhibition): 22%; inhibition at 0.2 µM (human CB1 receptor [1]; test concentration 0.2 μM (footnote 2), read-out: CB1 receptor binding percent inhibition): 14% |
| O=C(NN1CCCCC1)c1nn(-c2ccc(Cl)cc2Cl)c2c1CC/C2=C\c1ccc(F)cc1 [Cpd 28, (6E)-1-(2,4-dichloro-phenyl)-6-(4-fluoro-benzylidene)-1,4,5,6-tetrahydro-cyclopentapyrazole-3-carboxylic acid piperidin-1-ylamide] | – | – | – | CB2 receptor binding percent inhibition (human CB2 receptor; test concentration 0.2 μM (footnote 2)): ^(2) 4%; IC50 (human CB1 receptor [1]): 60 nM; CB1 receptor binding percent inhibition (human CB1 receptor [1]; 0.2 µM): 0.06, ^(2) 68% |
